Results as given in patent US20070142266A1, “Combination comprising a P-gp inhibitor and an anti-epileptic drug” (priority 2001, published 2007).

Assays:
[1] = In vivo microdialysis in adult female Wistar rats: extracellular (ECF) phenytoin levels in cerebral cortex in the absence of a P-gp inhibitor; settings: rat, cerebral cortex extracellular fluid (microdialysate), ip, 50 mg/kg phenytoin i.p., after maximum levels reached, read-out: average half-life of decrease of ECF concentrations of phenytoin (converted)
Description: (§1) In vivo microdialysis in Adult Female Wistar Rats
(§2) The combination of phenytoin (Aldrich, Steinheim, Germany) and a P-gp inhibitor, e.g. PSC833) is given via the microdialysis probe in the right frontal cortex, while a probe in the left cortex served as a vehicle control site. Perfusion with the P-gp inhibitor started 15 to 60 minutes prior to i.p. administration of 50 mg/kg phenytoin. • Animals: Adult female Wistar rats (Harlan-Winkelmann, Germany) kept under controlled environmental conditions are used in the study. • Implantation of guide cannulae: Guide cannulae (CMA/12 polyurethane, Camegie Medicine, Sweden) are implanted into the left and right frontal (motor) cortex under anesthesia. The tips of the guide are positioned at rostral +3.2, lateral +3.2 or 3.2 and ventral 2.0 mm to bregma, coordinates according to Paxinos and Watson, The rat brain in stereotaxic coordinates, Sydney, Academic Press, 1986. • Microdialysis procedure: Microdialysis experiments are performed following a recovery period of at least 3 days after surgery. The microdialysis probe is lowered through the guide cannula to a depth of 5.0 mm according to bregma. 14 to 16 h after insertion, perfusion of the probe is started using Ringer solution (in mM 147 Na^+, 2.3 Ca^2+, 4.0 K^+and 155.6 Cr, pH 6.0). […]

P-glycoprotein (P-gp) = assay: In vivo microdialysis in adult female Wistar rats: effect of local P-gp inhibitor perfusion on ECF levels of phenytoin in cerebral cortex; design: species or system rat
Description: as §1, §2

Row | SMILES | half-life [1] | increase of ECF levels of phenytoin above control (ECF plasma ratio of treated site vs vehicle treated controls) (P-glycoprotein (P-gp); 2 mM PSC833 via microdialysis probe, phenytoin 50 mg/kg i.p., ECF plasma ratio comparison) | maximum increase of ECF levels of phenytoin compared to untreated site (P-glycoprotein (P-gp); 2 mM PSC833 via right microdialysis probe started 15 min before phenytoin 50 mg/kg i.p., left cortex vehicle site)
1 | O=C1NC(=O)C(c2ccccc2)(c2ccccc2)N1 [phenytoin, 5,5-diphenyl-2,4-imidazolidinedione] | ~4 h |  | 
2 | C/C=C/C[C@@H](C)C(=O)[C@H]1C(=O)N[C@@H](C(C)C)C(=O)N(C)CC(=O)N(C)[C@@H](CC(C)C)C(=O)N[C@@H](C(C)C)C(=O)N(C)[C@@H](CC(C)C)C(=O)N[C@@H](C)C(=O)N[C@H](C)C(=O)N(C)[C@@H](CC(C)C)C(=O)N(C)[C@@H](CC(C)C)C(=O)N(C)[C@@H](C(C)C)C(=O)N1C [PSC833, [3′-desoxy-3′-oxo-MeBmt]^1-[Val]^2-Ciclosporin A] |  | about 150% | 70±20%
